Laboratory results as given in ChEMBL document CHEMBL1142990, “Self-organizing maps for identification of new inhibitors of P-glycoprotein” (J Med Chem, 2007).

target: ATP-dependent translocase ABCB1 (Homo sapiens, UniProt P08183); test: Inhibition of P-glycoprotein expressed in MDR CCRF vcr1000 cells by daunorubicin efflux assay
Sequence (P08183 whole entry): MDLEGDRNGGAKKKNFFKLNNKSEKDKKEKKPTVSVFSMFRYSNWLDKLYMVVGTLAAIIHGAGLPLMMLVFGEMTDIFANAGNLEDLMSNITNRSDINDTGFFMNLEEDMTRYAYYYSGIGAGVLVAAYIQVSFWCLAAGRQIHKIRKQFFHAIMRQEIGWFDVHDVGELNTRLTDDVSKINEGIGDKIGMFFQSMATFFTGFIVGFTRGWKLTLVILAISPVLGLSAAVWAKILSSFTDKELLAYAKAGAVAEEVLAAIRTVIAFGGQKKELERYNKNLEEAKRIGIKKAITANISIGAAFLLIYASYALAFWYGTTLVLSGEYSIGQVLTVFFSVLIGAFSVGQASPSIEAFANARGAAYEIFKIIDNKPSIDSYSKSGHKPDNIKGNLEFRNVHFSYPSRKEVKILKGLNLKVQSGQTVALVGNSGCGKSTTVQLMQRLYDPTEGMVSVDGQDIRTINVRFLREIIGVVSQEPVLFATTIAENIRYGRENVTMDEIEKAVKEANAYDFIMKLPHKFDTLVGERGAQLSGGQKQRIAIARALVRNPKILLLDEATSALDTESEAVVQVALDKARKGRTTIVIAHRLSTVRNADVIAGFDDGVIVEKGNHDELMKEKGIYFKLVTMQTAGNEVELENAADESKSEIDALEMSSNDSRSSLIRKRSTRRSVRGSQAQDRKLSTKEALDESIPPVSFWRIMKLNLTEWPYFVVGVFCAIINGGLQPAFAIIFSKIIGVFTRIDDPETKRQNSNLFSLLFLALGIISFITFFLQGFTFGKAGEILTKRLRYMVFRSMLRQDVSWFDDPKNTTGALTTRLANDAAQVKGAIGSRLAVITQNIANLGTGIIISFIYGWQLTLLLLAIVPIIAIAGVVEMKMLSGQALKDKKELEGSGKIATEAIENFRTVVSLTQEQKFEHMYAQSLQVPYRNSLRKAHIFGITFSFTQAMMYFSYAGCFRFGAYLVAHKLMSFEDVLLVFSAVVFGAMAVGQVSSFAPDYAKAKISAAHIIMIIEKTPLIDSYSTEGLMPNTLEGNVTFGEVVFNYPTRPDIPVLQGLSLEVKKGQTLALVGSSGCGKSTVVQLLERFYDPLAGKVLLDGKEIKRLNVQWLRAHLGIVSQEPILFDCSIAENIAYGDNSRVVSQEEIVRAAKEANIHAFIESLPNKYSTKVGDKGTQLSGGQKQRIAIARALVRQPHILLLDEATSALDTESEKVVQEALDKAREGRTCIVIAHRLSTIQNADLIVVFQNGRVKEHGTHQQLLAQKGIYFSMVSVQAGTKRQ

| SMILES | EC50 [µM] |
| --- | --- |
| O=C(CCc1cccc2ccccc12)c1ccccc1OCC(O)CN1CCC(O)(c2ccccc2)CC1 (stereo unspecified) | 0.075 |
| CC(=O)c1ccc(OCC(O)CN2CCCCC2)cc1 (stereo unspecified) | 49 |
| Cc1cccc(N2CCN(CC(O)COc3ccc(C(=O)CCc4ccccc4)cc3)CC2)c1C (stereo unspecified) | 0.227 |
| O=C(CCc1ccccc1)c1cc(OCc2ccccc2)ccc1OCC(O)CN1CCCCC1 (stereo unspecified) | 0.172 |
| COc1ccc(OCC(O)CN2CCN(c3ccccc3C)CC2)c(C(C)=O)c1 (stereo unspecified) | 0.859 |
| CC(C)(C)c1ccc(N2C(=O)c3ccccc3NC2c2ccc3c(c2)OCO3)cc1 (stereo unspecified) | 0.73 |
| Cc1cccc(N2CCN(CC(O)COc3cccc(C(=O)CCc4ccccc4)c3)CC2)c1C (stereo unspecified) | 0.137 |
| CCCNCC(O)COc1ccc(O)cc1C(=O)CCc1ccccc1 (stereo unspecified) [5-HYDROXY PROPAFENONE] | 3.02 |
| CC(C)N(CC(O)COc1ccc(C(=O)CCc2ccccc2)cc1)C(C)C (stereo unspecified) | 0.915 |
| COC(=O)c1ccc(NCC(O)COc2ccccc2C(=O)CCc2ccccc2)cc1 (stereo unspecified) | 1.54 |
| Cc1ccccc1N1CCN(CC(O)COc2cccc(C(=O)CCc3ccccc3)c2)CC1 (stereo unspecified) | 0.074 |
| O=C(CCc1ccccc1)c1ccccc1OCC(O)CNCCC(c1ccccc1)c1ccccc1 (stereo unspecified) | 0.717 |
| CC(C)C(NCC(O)COc1ccccc1C(=O)CCc1ccccc1)c1ccccc1 (stereo unspecified) | 0.21 |
| O=C(O)COc1ccccc1C(=O)CCc1ccccc1 | 1590 |
| CCC(=O)c1ccccc1OCC(O)CN1CCC(O)(c2ccccc2)CC1 (stereo unspecified) | 0.299 |
| O=C(CCc1cccc2ccccc12)c1ccccc1OCC(O)CN1CCCCC1 (stereo unspecified) | 0.172 |
| CC(C)(C)C(NCC(O)COc1ccccc1C(=O)CCc1ccccc1)c1ccccc1 (stereo unspecified) | 0.292 |

Further compounds by falling EC50, results first:

| EC50 [µM] | SMILES |
| --- | --- |
| 312 | CCOCCOC(=O)c1ccc(N)cc1 |
| 302 | CC(=O)c1ccc(OCC(O)CN2CCOCC2)cc1 (stereo unspecified) |
| 25.1 | CCOc1ccc(N2C(=O)c3ccccc3NC2c2ccc(N(C)C)cc2)cc1 (stereo unspecified) |
| 20.9 | COc1ccc(C2Nc3ccccc3C(=O)N2c2ccc(NC(C)=O)cc2)cc1 (stereo unspecified) |
| 6.88 | O=C(CCc1ccccc1)c1ccc(OCC(O)CN2CCOCC2)cc1 (stereo unspecified) |
| 1.74 | CC(C)N(CC(O)COc1ccccc1C(O)CCc1ccccc1)C(C)C (stereo unspecified) |
| 1.69 | CCCN(CC(O)COc1ccccc1C(=O)CCc1ccccc1)C(=O)c1ccccc1 (stereo unspecified) |
| 1.21 | CCc1ccc(N2C(=O)c3ccccc3NC2c2ccc(OCC(C)C)cc2)cc1 (stereo unspecified) |
| 0.73 | O=C(CCc1cccc2ccccc12)c1ccccc1OCC(O)CN1CCOCC1 (stereo unspecified) |
| 0.659 | O=C(CCc1ccccc1)c1ccccc1OCC(O)CN1CCN(Cc2ccccc2)CC1 (stereo unspecified) |
| 0.537 | CC(=O)c1cccc(OCC(O)CN2CCN(c3ccccc3C)CC2)c1 (stereo unspecified) |
| 0.533 | O=C(CCc1ccccc1)c1ccccc1OCCCCN1CCCCC1 |
| 0.505 | O=C(CCc1ccccc1)c1ccc(OCC(O)CNCCC(c2ccccc2)c2ccccc2)cc1 (stereo unspecified) |
| 0.465 | CC(C)N(CC(O)COc1ccccc1C(=O)CCc1cccc2ccccc12)C(C)C (stereo unspecified) |
| 0.259 | O=C(CCc1ccccc1)c1ccccc1OCC(O)CN1CCC(Cc2ccccc2)CC1 (stereo unspecified) |
| 0.142 | O=C1c2cccc(OCC(O)CN3CCCCC3)c2CC1Cc1ccccc1 (stereo unspecified) |
| 0.097 | CCCCOc1ccc(C(=O)Nc2ccc3nc(SCc4c(C)cc(C)c(C(C)=O)c4C)sc3c2)cc1 |
| 0.026 | Cc1ccc(OCC(O)CN2CCN(c3ccccc3C)CC2)c(C(=O)CCc2ccccc2)c1 (stereo unspecified) |
| 0.019 | Cc1ccccc1N1CCN(CC(O)COc2ccccc2C(=O)CCc2ccc(Cl)cc2)CC1 (stereo unspecified) |
